Results reported in patent US20080090900A1, “ANTIBIOTIC BUSHRIN” (University of Karachi, priority 2006, published 2008).
≈ marks a conversion by molar mass, not a printed value. Entries after “also recorded” stand apart in the source; their conditions may differ.

Assays:
Format in all cases: cell-based
[1] = system: Shewanella putrifacians; assay: disc diffusion technique; conditions: 150 μg disc, read-out: Sensitivity (width of inhibition zone)
[2] = system: Bacillus subtilis; assay: disc diffusion technique
[3] = system: Candida albicans; assay: disc diffusion technique
[4] = system: Staphylococcus epidermidis; assay: disc diffusion technique
[5] = system: Salmonella typhi; conditions: Salmonella enterica
[6] = system: Bacillus cereus; assay: disc diffusion technique; conditions: 150 μg disc, read-out: Sensitivity (width of inhibition zone)
[7] = system: Vibrio harveyi; assay: disc diffusion technique; conditions: 150 μg disc, read-out: Sensitivity (width of inhibition zone)
[8] = system: Vibrio cholera; assay: disc diffusion technique
[9] = system: Staphylococcus aureus; assay: Spheroplasting activities
Protocol: Aliquots (100 μl) of an exponential phase culture(A600,0.05) grown in Luria broth supplemented with 0.3M concentration of sucrose were dispensed into test tubes containing different concentration of Compound 1 and 1 μl/ml ampicillin as positive control. The tubes were then incubated at 30° C. with shaking at 140 rpm. After 90 minutes, the cells were examined by phase contrast microscope for any morphological changes or for the presence of spheroplast. To confirm the osmotic fragility of the spheroplast the lytic effect of 2-3 μl of water added under the cover slip was tested.

[10] = system: Clostridium perfringens
[11] = system: MSSA methicillin sensitive staphylococcus aureus; assay: disc diffusion technique
[12] = system: Proteus morgani
[13] = system: Streptococcus group G; assay: disc diffusion technique; conditions: 150 μg disc
[14] = system: Vibrio cholera; conditions: Vibrio cholerae
[15] = system: Serratia marcescens; assay: disc diffusion technique
[16] = system: Clostridium perfringens; assay: microbe, parasite or virus in culture
[17] = system: Vibrio harveyi
[18] = system: Klebsiella aerogenes; assay: disc diffusion technique; conditions: 150 μg disc
[19] = system: Proteus morgani; assay: disc diffusion technique; conditions: 150 μg disc, read-out: Sensitivity (width of inhibition zone)

## Cc1cc(O)c2c(c1)C=CC(C)(c1ccoc1)C2 (centres unmarked) [Compound 1, 7-(3-furyl)-3,7-dimethyl-7,8-dihydro-1-naphthalenol]
[1]
  zone of inhibition at 150 µg/disc: 10 to 15 mm
[2]
  antibacterial activity: active; also recorded: activity
[2]; 150 μg disc, read-out: Sensitivity (width of inhibition zone)
  zone of inhibition at 150 µg/disc: 18 to 30 mm
[3]
  activity: not active
[3]; 150 μg disc
  Sensitivity (width of inhibition zone): −
[4]; 150 μg disc, Staphylococcus epidermidis, read-out: Sensitivity (width of inhibition zone)
  zone of inhibition at 150 µg/disc: 18 to 30 mm
[4]; Staphylococcus epidermids
  antibacterial activity: active; also recorded: activity
[5]
  MIC: 75 µg/mL (≈ 312 µM)
[6]
  zone of inhibition at 150 µg/disc: 18 to 30 mm
[7]
  zone of inhibition at 150 µg/disc: 18 to 30 mm
[8]
  antibacterial activity: active; also recorded: activity
[9]; Luria broth with 0.3M sucrose, 90 minutes, phase contrast microscope
  formation of osmotically fragile spheroplasts: did not induce
[9]; Staphylococcus aureus
  killing of cells in osmotically protected medium: killed
[10]
  MIC: 100 µg/mL (≈ 416 µM)
[11]; Staphylococcus aureus MSSA
  antibacterial activity: active; also recorded: activity
[11]; Staphylococcus aureus, 150 μg disc, MSSA, read-out: Sensitivity (width of inhibition zone)
  zone of inhibition at 150 µg/disc: 18 to 30 mm
[12]
  MIC: 75 µg/mL (≈ 312 µM)
[13]
  Sensitivity (width of inhibition zone): −
[14]
  MIC: 60 µg/mL (≈ 250 µM)
[15]; 150 μg disc, Serratia marcescens, read-out: Sensitivity (width of inhibition zone)
  zone of inhibition at 150 µg/disc: 15 to 20 mm
[15]; Serratia marcesens
  antibacterial activity: active; also recorded: activity
[16]; Clostridium perfringens, read-out: Sensitivity (width of inhibition zone)
  zone of inhibition at 150 µg/disc: 10 to 15 mm
[16]; disc diffusion, anaerobic Clostridium perfringens
  antibacterial activity: less active
[17]
  MIC: 75 µg/mL (≈ 312 µM)
[18]
  Sensitivity (width of inhibition zone): −
[19]
  zone of inhibition at 150 µg/disc: 18 to 30 mm
